Measurements from patent publication US8575144B2, “Beta-lactamase inhibitory compounds” (Southern Methodist University, priority 2008, dated 2013).
pIC50: −log10 of the molar value.

What was measured:
[1] = system: Resistant P. aeruginosa; assay: Synergy of inhibitors with imipenem against resistant P. aeruginosa; type: cell-based
Source text: (§1) Tables 2 and 3 show the effectiveness of inhibitory compounds of the invention in killing resistant bacterial strains with imipenem, a β-lactam antibiotic.

[2] = system: Resistant A. baumannii; assay: Synergy of inhibitors with imipenem against resistant A. baumannii; type: cell-based
Source text: as §1

[3] = molecular target: TEM-1 β-lactamase (Escherichia coli, UniProt P62593); assay: Inhibition of representative β-lactamases: TEM-1; type: biochemical; conditions: read-out: IC50 TEM-1 E. Coli
TEM-1 β-lactamase, sequence (P62593 24-286 limits assumed): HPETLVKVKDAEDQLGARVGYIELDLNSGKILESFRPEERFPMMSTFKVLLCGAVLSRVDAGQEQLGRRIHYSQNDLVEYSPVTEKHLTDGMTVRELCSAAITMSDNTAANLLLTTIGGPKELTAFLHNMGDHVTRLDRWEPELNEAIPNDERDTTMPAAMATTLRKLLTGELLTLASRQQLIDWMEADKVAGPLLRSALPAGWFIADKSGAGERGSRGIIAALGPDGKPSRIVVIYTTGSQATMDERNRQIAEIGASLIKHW

[4] = molecular target: T1, AmpC β-lactamase (Pseudomonas aeruginosa, UniProt P24735); assay: Inhibition of representative β-lactamases: AmpC P. aeruginosa; type: biochemical
T1 sequence (P24735 27-397): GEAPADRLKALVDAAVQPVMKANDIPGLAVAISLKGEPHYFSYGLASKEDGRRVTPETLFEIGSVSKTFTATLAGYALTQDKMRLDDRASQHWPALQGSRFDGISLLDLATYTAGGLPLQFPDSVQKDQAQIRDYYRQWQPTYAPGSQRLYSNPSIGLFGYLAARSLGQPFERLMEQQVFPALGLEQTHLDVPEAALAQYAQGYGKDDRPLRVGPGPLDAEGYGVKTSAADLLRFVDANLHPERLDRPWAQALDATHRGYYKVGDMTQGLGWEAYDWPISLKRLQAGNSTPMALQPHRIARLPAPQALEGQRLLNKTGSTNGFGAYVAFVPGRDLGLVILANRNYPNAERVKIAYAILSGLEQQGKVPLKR

[5] = molecular target: AmpC β-lactamase; conditions: read-out: IC50 AmpC A. baumannii
Source text: Methods for testing the β-lactamase inhibitory bioactivity of compounds are well known in the art. For example, see T. Viswanantha, et al. (2008), “Assays for β-lactamase Activity and Inhibition,”, Methods in Molecular Medicine, 142: New Antibiotic Targets, Chapter 19, pp. 239-260, and references cited therein.

[6] = molecular target: OXA-40 β-lactamase (Acinetobacter baumannii, UniProt Q8RLA6); type: biochemical
OXA-40 β-lactamase, sequence (Q8RLA6 22-275): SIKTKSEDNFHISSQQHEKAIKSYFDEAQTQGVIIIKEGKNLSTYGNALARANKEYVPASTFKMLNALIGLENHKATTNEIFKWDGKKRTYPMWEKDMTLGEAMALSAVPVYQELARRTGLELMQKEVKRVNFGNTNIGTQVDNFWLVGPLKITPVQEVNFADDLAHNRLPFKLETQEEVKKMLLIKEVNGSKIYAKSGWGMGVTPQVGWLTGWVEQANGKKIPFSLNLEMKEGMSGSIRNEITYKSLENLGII

[7] = molecular target: T1, AmpC β-lactamase; assay: Inhibition of representative β-lactamases: AmpC P. aeruginosa in serum; type: biochemical

SMILES	MIC ([1]; Pseudomonas aeruginosa, imipenem alone, no inhibitor) [µg/mL]	MIC ([2]; Acinetobacter baumannii, imipenem alone, no inhibitor) [µg/mL]	pIC50 [3]	pIC50 [4]	pIC50 [5]	pIC50 [6]	pIC50 [7]	Inhibitor concentration with imipenem at 0.0313 MIC ([1]; imipenem 0.625 mg/L (0.0313 MIC)) [µg/mL]	Inhibitor concentration with imipenem at 0.0625 MIC ([1]; imipenem 1.25 mg/L (0.0625 MIC)) [µg/mL]	Inhibitor concentration with imipenem at 0.125 MIC ([1]; imipenem 2.5 mg/L (0.125 MIC)) [µg/mL]	Inhibitor concentration with imipenem at 0.25 MIC ([1]; imipenem 5 mg/L (0.25 MIC)) [µg/mL]	Inhibitor concentration with imipenem at 0.5 MIC ([1]; imipenem 10 mg/L (0.5 MIC)) [µg/mL]	Inhibitor concentration with imipenem at 0.0313 MIC ([2]; imipenem 8 mg/L (0.0313 MIC)) [µg/mL]	Inhibitor concentration with imipenem at 0.0625 MIC ([2]; imipenem 16 mg/L (0.0625 MIC)) [µg/mL]	Inhibitor concentration with imipenem at 0.125 MIC ([2]; imipenem 32 mg/L (0.125 MIC)) [µg/mL]	Inhibitor concentration with imipenem at 0.25 MIC ([2]; imipenem 64 mg/L (0.25 MIC)) [µg/mL]	Inhibitor concentration with imipenem at 0.5 MIC ([2]; imipenem 128 mg/L (0.5 MIC)) [µg/mL]
C[C@@H](O)[C@H]1C(=O)N2C(C(=O)O)=C(SCCN=CN)C[C@H]12 [Imipenem, imipenem, reference compound]	20	256															
C[C@]1(COC(=O)Cc2ccc(O)c(O)c2)[C@H](C(=O)O)N2C(=O)/C(=C/c3ccccn3)[C@H]2S1(=O)=O [JDB/LN-1-255]			10.52	8.22	8.40	7.96	7.09	>100	100	50	25	6.25	>100	100	50	25	6.25
